Experimental data: ChEMBL document CHEMBL2157946, “Hydrolytic instability of the important orexin 1 receptor antagonist SB-334867: possible confounding effects on in vivo and in vitro studies” (Bioorg Med Chem Lett, 2012)
Each block holds one molecule with its values, some of them ahead of it.

What was measured:
[1] = Chemical stability of the compound stored under argon in tightly sealed amber bottle at 15 degC assessed as 1-(2-hydroxy-4-{[(1,5-naphthyridin-4-yl)carbamoyl]amino} phenyl)acetamide formation after 10 months by mass spectrometry analysis; assay type: physicochemical; conditions: 7305 h
[2] = Chemical stability of the compound stored under argon in tightly sealed amber bottle at 15 degC assessed as 1-(2-hydroxy-4-{[(1,5-naphthyridin-4-yl)carbamoyl]amino} phenyl)acetamide formation after 10 months by NMR analysis; assay type: physicochemical; conditions: 7305 h
[3] = molecular target: T1, Orexin/Hypocretin receptor type 1 (Homo sapiens, UniProt O43613); assay: Antagonist activity at OX1 receptor expressed in RD-HGA16 cells assessed as inhibition of orexin A-induced intracellular calcium mobilization after 15 mins by FLIPR assay; assay type: functional, cell-based
T1 sequence (O43613 whole entry): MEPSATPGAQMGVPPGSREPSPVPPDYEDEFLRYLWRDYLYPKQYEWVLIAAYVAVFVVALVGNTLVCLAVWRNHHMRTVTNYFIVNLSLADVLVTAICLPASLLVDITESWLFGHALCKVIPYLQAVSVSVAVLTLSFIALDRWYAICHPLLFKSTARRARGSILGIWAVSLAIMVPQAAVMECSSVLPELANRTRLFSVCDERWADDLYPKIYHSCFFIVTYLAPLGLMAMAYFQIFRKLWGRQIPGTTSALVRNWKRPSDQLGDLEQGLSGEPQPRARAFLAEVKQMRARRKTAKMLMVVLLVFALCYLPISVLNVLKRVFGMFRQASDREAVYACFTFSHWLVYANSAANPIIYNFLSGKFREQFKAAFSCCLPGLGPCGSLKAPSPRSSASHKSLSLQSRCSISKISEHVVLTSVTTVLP

Rattus norvegicus [4] = assay: Antagonist activity at OX1 receptor in rat assessed as decrease in alcoholic response at 5 mg/kg, ip; assay type: functional; parameters: scale not given: the % may be the effect or the level left; conditions: route intraperitoneal
[5] = Chemical stability of the compound as refrigerated solution in 100 % DMSO stored in teflon sealed container up to 3 months by NMR analysis; assay type: physicochemical
[6] = Solubility of the compound in DMSO at 7.5 mg at room temperature after 15 mins by sonication method in presence of encapsin; assay type: physicochemical; conditions: in vivo, 0.25 h
[7] = Solubility of the compound in ACSF at 1.6 mg at room temperature after 45 mins by sonication method; assay type: physicochemical; conditions: in vivo, 0.75 h
Rattus norvegicus [8] = assay: Antagonist activity at OX1 receptor in rat assessed as decrease in alcoholic response at 20 mg/kg, ip after 30 mins; assay type: functional; parameters: scale not given: the % may be the effect or the level left; conditions: route intraperitoneal

Stability [1]: Unstable
Stability [2]: Unstable
Structure (SMILES): Cc1nc2ccc(NC(=O)Nc3ccnc4cccnc34)cc2o1.Cl

IC50 [3]: > 30 µM
Structure (SMILES): CC(=O)Nc1ccc(NC(=O)Nc2ccnc3cccnc23)cc1O

Stability [5]: Stable
solubility [6]: Insoluble
solubility [7]: Insoluble
Structure (SMILES): Cc1nc2ccc(NC(=O)Nc3ccnc4cccnc34)cc2o1
Activity (Rattus norvegicus [4]): 75%
Activity (Rattus norvegicus [8]): 50%
